Experimental data as given in patent US20260256797A1, “NOVEL INDENONE DERIVATIVES AND USES THEREOF” (AMYLOID SOLUTION INC., priority 2022, published 2026).

Experiments:
[1] = target: Tau-RD3 (Tau repeat domain 3) (Homo sapiens, UniProt P10636); assay: Tau disaggregation test by thioflavin-T assay; format: biochemical; details: 35 μM Tau-RD3 aggregated 24 hours, then compound 0-500 μM for 48 hours at 37° C.
Method: (§1) Each compound was dissolved in DMSO to a concentration of 10 mM. Subsequently, the compound was diluted with 6% DMSO (in DW) and used.
(§2) Specifically, amyloid-beta and tau solutions were prepared by dissolving Aβ1-42 or Tau-RD3 (Tau repeat domain 3) monomer in DMSO to a concentration of 10 mM. Thereafter, each solution was diluted with DW to a concentration of 100 μM and stored on ice. Meanwhile, thioflavin-T was dissolved in 50 mM glycine buffer (pH 8.5) to a concentration of 5 mM. Thereafter, the resulting solution was diluted with 50 mM glycine buffer (pH 8.5) to a concentration of 5 μM and stored in a dark room while light was blocked.
(§3) Each of the amyloid-beta and tau solutions prepared according to Experimental Example 1.1 was added to a 1.5 mL microcentrifuge tube to a concentration of 50 μM or 35 µM, and then a reaction was allowed to occur therebetween at 37° C. for 24 hours. Each of the 1.5 mL microcentrifuge tubes in which amyloid-beta aggregation and tau aggregation had been completed was treated with each compound at a concentrated of 500 μM to 0 μM through serial dilution, and then a further reaction was allowed to occur therebetween at 37° C. for 48 hours. 25 μL of the reaction solution in which the reaction had been completed was added to each well of a 96-well plate for fluorescence analysis, and 75 μL of the previously prepared thioflavin-T solution was added to each well. After a reaction was allowed to occur at room temperature in the dark for 5 minutes, fluorescence values were measured at excitation 450 nm and emission 485 nm by using a multi-mode microplate reader.
(§4) The fluorescence value of a group (control) treated with amyloid-beta or tau alone, followed by aggregation for 72 hours was converted into a percentage value and expressed as 100, and amyloid-beta and tau aggregates, in which aggregation had been completed upon reaction for 24 hours, were treated with each compound at each concentration and a further reaction was allowed to occur therebetween for 48 hours, and then fluorescence values thereof were measured and converted into relative values. The results thereof are illustrated in FIGS. 1 to 6 and 7 to 12. In addition, EC50 values of the compounds of the present disclosure for amyloid-beta and tau, respectively are summarized in Table 1.

Aβ1-42 = target: T1, Aβ1-42 (Homo sapiens, UniProt P05067); assay: Amyloid-beta (Aβ) disaggregation test by thioflavin-T assay; format: biochemical; details: 50 μM Aβ1-42 aggregated 24 hours, then compound 0-500 μM for 48 hours at 37° C.
T1 construct: dissolving Aβ1-42 or Tau-RD3 (Tau repeat domain 3) monomer in DMSO
Method: as §1, §2, §3, §4

T1 sequence (P05067 672-713 limits assumed): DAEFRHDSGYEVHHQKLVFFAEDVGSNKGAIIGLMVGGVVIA
Chain of Tau-RD3 (Tau repeat domain 3) (P10636 623-653 limits assumed): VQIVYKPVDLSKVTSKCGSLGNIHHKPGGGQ

Structure (SMILES)	EC50 [1] [µM]	EC50 (Aβ1-42) [µM]
COc1ccc(C2=C(c3ncsc3C)c3ccc(OCCc4ccccc4)cc3C2=O)cc1 [Compound 18, 2-(4-methoxyphenyl)-3-(5-methylthiazol-4-yl)-6-phenethoxy-1H-inden-1-one]	242	26.1
COc1ccc(C2=C(c3ncsc3C)c3ccc(OCCCCc4ccccc4)cc3C2=O)cc1 [Compound 19, 2-(4-methoxyphenyl)-3-(5-methylthiazol-4-yl)-6-(4-phenylbutoxy)-1H-inden-1-one]	338	11.6
COc1ccc(OCCOc2ccc3c(c2)C(=O)C(c2ccc(F)cc2)=C3c2ncsc2C)cc1 [Compound 22, 2-(4-fluorophenyl)-6-(2-(4-methoxyphenoxy)ethoxy)-3-(5-methylthiazol-4-yl)-1H-inden-1-one]	60.3	18.5
Cc1scnc1C1=C(c2ccc(F)cc2)C(=O)c2cc(OCCOc3ccc4c(c3)OCO4)ccc21 [Compound 24, 6-(2-(benzo[d][1,3]dioxol-5-yloxy)ethoxy)-2-(4-fluorophenyl)-3-(5-methylthiazol-4-yl)-1H-inden-1-one]	> 500	99.6
Cc1scnc1C1=C(c2cccs2)C(=O)c2cc(OCCCCc3ccccc3)ccc21 [Compound 29, 3-(5-methylthiazol-4-yl)-6-(4-phenylbutoxy)-2-(thiophen-2-yl)-1H-inden-1-one]	> 500	7.5
Cc1scnc1C1=C(c2cccs2)C(=O)c2cc(OCOCc3ccccc3)ccc21 [Compound 30, 6-((benzyloxy)methoxy)-3-(5-methylthiazol-4-yl)-2-(thiophen-2-yl)-1H-inden-1-one]	410	3.7
Cc1scnc1C1=C(c2cccs2)C(=O)c2cc(OCCOc3ccccc3)ccc21 [Compound 31, 3-(5-methylthiazol-4-yl)-6-(2-phenoxyethoxy)-2-(thiophen-2-yl)-1H-inden-1-one]	166	12.8
Cc1scnc1C1=C(c2ccc(C(F)(F)F)cc2)C(=O)c2cc(OCCOc3ccc4c(c3)OCO4)ccc21 [Compound 34, 6-(2-(benzo[d][1,3]dioxol-5-yloxy)ethoxy)-3-(5-methylthiazol-4-yl)-2-(4-(trifluoromethyl)phenyl)-1H-inden-1-one]	426	31.2
Cc1scnc1C1=C(c2cccs2)C(=O)c2cc(OCCOc3ccc(F)c(F)c3)ccc21 [Compound 37, 6-(2-(3,4-difluorophenoxy)ethoxy)-3-(5-methylthiazol-4-yl)-2-(thiophen-2-yl)-1H-inden-1-one]	470	46.3
O=C1C(c2cccnc2)=C(c2ccoc2)c2ccc(OCCCCc3ccccc3)cc21 [Compound 39, 3-(furan-3-yl)-6-(4-phenylbutoxy)-2-(pyridin-3-yl)-1H-inden-1-one]	10.7	2.6
O=C1C(c2cccnc2)=C(c2ccoc2)c2ccc(OCCOc3ccccc3)cc21 [Compound 41, 3-(furan-3-yl)-6-(2-phenoxyethoxy)-2-(pyridin-3-yl)-1H-inden-1-one]	4.8	1.1
COc1ccc(OCCOc2ccc3c(c2)C(=O)C(c2cccnc2)=C3c2ccoc2)cc1 [Compound 42, 3-(furan-3-yl)-6-(2-(4-methoxyphenoxy)ethoxy)-2-(pyridin-3-yl)-1H-inden-1-one]	124	31.2
CC(C)c1ccc(OCCOc2ccc3c(c2)C(=O)C(c2cccnc2)=C3c2ccoc2)cc1 [Compound 49, 3-(furan-3-yl)-6-(2-(4-isopropylphenoxy)ethoxy)-2-(pyridin-3-yl)-1H-inden-1-one]	1.9	1.5

Now from value to compound:

EC50 [1] [µM]	EC50 (Aβ1-42) [µM]	Structure (SMILES)
478	11.9	COc1ccc(C2=C(c3ncsc3C)c3ccc(OCOCc4ccccc4)cc3C2=O)cc1 [Compound 20, 6-((benzyloxy)methoxy)-2-(4-methoxyphenyl)-3-(5-methylthiazol-4-yl)-1H-inden-1-one]
5.2	4.1	COc1ccc(OCCOc2ccc3c(c2)C(=O)C(c2ccc(F)cc2)=C3c2ncsc2C)cc1OC [Compound 23, 6-(2-(3,4-dimethoxyphenoxy)ethoxy)-2-(4-fluorophenyl)-3-(5-methylthiazol-4-yl)-1H-inden-1-one]
> 500	7.6	Cc1scnc1C1=C(c2ccc(F)cc2)C(=O)c2cc(OCCOc3ccncc3)ccc21 [Compound 25, 2-(4-fluorophenyl)-3-(5-methylthiazol-4-yl)-6-(2-(pyridin-4-yloxy)ethoxy)-1H-inden-1-one]
4.8	2.4	Cc1scnc1C1=C(c2cncnc2)C(=O)c2cc(OCCOc3ccc(Cl)c(Cl)c3)ccc21 [Compound 26, 6-(2-(3,4-dichlorophenoxy)ethoxy)-3-(5-methylthiazol-4-yl)-2-(pyrimidin-5-yl)-1H-inden-1-one]
> 500	237	Cc1scnc1C1=C(c2cncnc2)C(=O)c2cc(OCCOc3ccc(F)c(F)c3)ccc21 [Compound 27, 6-(2-(3,4-difluorophenoxy)ethoxy)-3-(5-methylthiazol-4-yl)-2-(pyrimidin-5-yl)-1H-inden-1-one]
310	8.3	Cc1scnc1C1=C(c2cccs2)C(=O)c2cc(OCCc3ccccc3)ccc21 [Compound 28, 3-(5-methylthiazol-4-yl)-6-phenethoxy-2-(thiophen-2-yl)-1H-inden-1-one]
145	10.4	COc1ccc(OCCOc2ccc3c(c2)C(=O)C(c2ccc(C(F)(F)F)cc2)=C3c2ncsc2C)cc1OC [Compound 33, 6-(2-(3,4-dimethoxyphenoxy)ethoxy)-3-(5-methylthiazol-4-yl)-2-(4-(trifluoromethyl)phenyl)-1H-inden-1-one]
> 500	1	Cc1scnc1C1=C(c2ccc(C(F)(F)F)cc2)C(=O)c2cc(OCCOc3ccncc3)ccc21 [Compound 35, 3-(5-methylthiazol-4-yl)-6-(2-(pyridin-4-yloxy)ethoxy)-2-(4-(trifluoromethyl)phenyl)-1H-inden-1-one]
> 500	26	Cc1scnc1C1=C(c2cccs2)C(=O)c2cc(OCCOc3ccc(Cl)c(Cl)c3)ccc21 [Compound 36, 6-(2-(3,4-dichlorophenoxy)ethoxy)-3-(5-methylthiazol-4-yl)-2-(thiophen-2-yl)-1H-inden-1-one]
120	3	O=C1C(c2cccnc2)=C(c2ccoc2)c2ccc(OCCc3ccccc3)cc21 [Compound 38, 3-(furan-3-yl)-6-phenethoxy-2-(pyridin-3-yl)-1H-inden-1-one]
67.1	2.1	O=C1C(c2cccnc2)=C(c2ccoc2)c2ccc(OCOCc3ccccc3)cc21 [Compound 40, 6-((benzyloxy)methoxy)-3-(furan-3-yl)-2-(pyridin-3-yl)-1H-inden-1-one]
2.8	1.8	COc1ccc(OCCOc2ccc3c(c2)C(=O)C(c2cccnc2)=C3c2ccoc2)cc1OC [Compound 43, 6-(2-(3,4-dimethoxyphenoxy)ethoxy)-3-(furan-3-yl)-2-(pyridin-3-yl)-1H-inden-1-one]
2.7	1.8	O=C1C(c2cccnc2)=C(c2ccoc2)c2ccc(OCCOc3ccc4c(c3)OCO4)cc21 [Compound 44, 6-(2-(benzo[d][1,3]dioxol-5-yloxy)ethoxy)-3-(furan-3-yl)-2-(pyridin-3-yl)-1H-inden-1-one]
11.9	9.1	O=C1C(c2cccnc2)=C(c2ccoc2)c2ccc(OCCOc3ccncc3)cc21 [Compound 45, 3-(furan-3-yl)-2-(pyridin-3-yl)-6-(2-(pyridin-4-yloxy)ethoxy)-1H-inden-1-one]
2.1	1.4	O=C1C(c2cccnc2)=C(c2ccoc2)c2ccc(OCCOc3ccc(Cl)c(Cl)c3)cc21 [Compound 46, 6-(2-(3,4-dichlorophenoxy)ethoxy)-3-(furan-3-yl)-2-(pyridin-3-yl)-1H-inden-1-one]
57	1.7	O=C1C(c2cccnc2)=C(c2ccoc2)c2ccc(OCCOc3ccc(F)c(F)c3)cc21 [Compound 47, 6-(2-(3,4-difluorophenoxy)ethoxy)-3-(furan-3-yl)-2-(pyridin-3-yl)-1H-inden-1-one]
4.1	2.3	CN(C)c1ccc(OCCOc2ccc3c(c2)C(=O)C(c2cccnc2)=C3c2ccoc2)cc1 [Compound 48, 6-(2-(4-(dimethylamino)phenoxy)ethoxy)-3-(furan-3-yl)-2-(pyridin-3-yl)-1H-inden-1-one]
